Source: patent US5536714A, “Steroid derivatives for the treatment of prostatic hypertrophy their preparation and uses” (Sankyo Company, Limited, priority 1992, dated 1996)

What follows are compounds tested on Rat 5α-Reductase (assay: Rat 5α-Reductase Inhibition Test). Conditions: final concentration of test compound 10^-8 M; 1 μM [14C]-testosterone; pH 6.5; 37° C., 15 to 30 minutes.
Assay type: biochemical, rat (Sprague-Dawley, ventral prostate)
Description: The tissue was then homogenized, first with a Polytron (trade mark) homogenizer (manufactured by Kinematica, GmbH) and then with a Teflon-glass homogenizer (Teflon is a trade mark). The suspension of homogenized prostate tissue was then centrifuged (140000×g, 60 minutes), and the sediment was suspended by adding approximately a 5-fold amount of the above buffer. The suspension was again centrifuged (140000×g, 60 minutes). […] This was adjusted to a protein concentration of 30 to 40 mg/ml by the addition of the buffer described above, and the preparation was then stored frozen at -80° C. Measurement of the amount of protein was performed using the Bio-Rad Protein Assay method, and bovine γ-globulin (Cohn Fraction II, manufactured by Sigma) was used for the protein reference standard. […] The mixture was then incubated at 37° C. for 15 to 30 minutes. Testing was also performed on a control group by adding solvent only. Following incubation, 2 ml of ethyl acetate, containing 10 μg each of testosterone, 5α-dihydrotestosterone and androstenedione, were added to stop the reaction. […] The steroid was dissolved in 40 μl of ethyl acetate and spotted onto a thin layer chromatographic plate (LK5DF silica plate, manufactured by Whatman). The plate was then developed twice at room temperature with a mixture of ethyl acetate and cyclohexane (1:1 by volume). The steroid fraction was identified with ultraviolet light and stained using an aqueous solution of 1% w/v […] and 10% w/v sulfuric acid. The radioactivity profiles of the thin layer chromatographic plate were measured using a bio-image analyzer (manufactured by Fuji Photo Film). Enzyme activity was expressed as the proportion of [^14 C]-5α-dihydrotestosterone that was converted from the [^14 C]-testosterone (conversion rate (%)) added. […]

First: Cc1ccc(C(C)(C)NC(=O)[C@H]2CC[C@H]3[C@@H]4CC=C5C=C(C(=O)O)CC[C@]5(C)[C@H]4CC[C@]23C)cc1 [Example 11, 17β-{N-[1-(4-Methylphenyl)-1-methylethyl]carbamoyl}androsta-3,5-diene-3-carboxylic acid]
Second: COc1ccc(C(C)(C)NC(=O)[C@H]2CC[C@H]3[C@@H]4CC=C5C=C(C(=O)O)CC[C@]5(C)[C@H]4CC[C@]23C)cc1 [Example 2, 17β-{N-[1-(4-Methoxyphenyl)-1-methylethyl]carbamoyl}androsta-3,5-diene-3-carboxylic acid]
The “Inhibitory Activity” value of the first is higher: 73.5% for the first, 70.6% for the second.

Compared with `CCOc1ccc(C(C)(C)NC(=O)[C@H]2CC[C@H]3[C@@H]4CC=C5C=C(C(=O)O)CC[C@]5(C)[C@H]4CC[C@]23C)cc1` [Example 13, 17β-{N-[1-(4-Ethoxyphenyl)-1-methylethyl]carbamoyl}androsta-3,5-diene-3-carboxylic acid], `COc1cccc(C(C)(C)NC(=O)[C@H]2CC[C@H]3[C@@H]4CC=C5C=C(C(=O)O)CC[C@]5(C)[C@H]4CC[C@]23C)c1` [Example 9, 17β-{N-[1-(3-Methoxyphenyl)-1-methylethyl]carbamoyl}androsta-3,5-diene-3-carboxylic acid] is lower in “Inhibitory Activity” value: 84.3% for the first, 77.9% for the second.

Compared with `C[C@]12CC[C@H]3[C@@H](CC=C4C=C(C(=O)O)CC[C@@]43C)[C@@H]1CC[C@@H]2C(=O)N(Cc1ccccc1)Cc1ccccc1` [Example 25, 17β-(N,N-Dibenzylcarbamoyl)androsta-3,5-diene-3-carboxylic acid], `C[C@]12CC[C@H]3[C@@H](CC=C4C=C(C(=O)O)CC[C@@]43C)[C@@H]1CC[C@@H]2C(=O)NC(Cc1ccccc1)c1ccccc1` (stereo partly drawn) [Example 6, 17β-[N-(1,2-Diphenylethyl)carbamoyl]androsta-3,5-diene-3-carboxylic acid] is higher in “Inhibitory Activity” value: 79.3% for the first, 89.4% for the second.

Going from `C[C@]12CC[C@H]3[C@@H](CC=C4C=C(C(=O)O)CC[C@@]43C)[C@@H]1CC[C@@H]2C(=O)NC(c1ccccc1)c1ccc(O)cc1` (stereo partly drawn) [Example 15, 17β-[N-(4-Hydroxybenzhydryl)carbamoyl]androsta-3,5-diene-3-carboxylic acid] to `COc1ccc(C(NC(=O)[C@H]2CC[C@H]3[C@@H]4CC=C5C=C(C(=O)O)CC[C@]5(C)[C@H]4CC[C@]23C)c2ccccc2)cc1` (stereo partly drawn) [Example 21, 17β-[N-(4-Methoxybenzhydryl)carbamoyl]androsta-3,5-diene-3-carboxylic acid], the “Inhibitory Activity” value rises from 73.3% to 84.9%.

Compared with `CC(C)(C)NC(=O)[C@H]1CC[C@H]2[C@@H]3CC=C4C=C(C(=O)O)CC[C@]4(C)[C@H]3CC[C@]12C` [Compound B, 17β-t-butylcarbamoylandrosta-3,5-diene-3-carboxylic acid, reference compound], `COc1ccc(C(C)(C)NC(=O)[C@H]2CC[C@H]3[C@@H]4CC=C5C=C(C(=O)O)CC[C@]5(C)[C@H]4CC[C@]23C)cc1OC` [Example 7, 17β-{N-[1-(3,4-Dimethoxyphenyl)-1-methylethyl]carbamoyl}androsta-3,5-diene-3-carboxylic acid] is higher in “Inhibitory Activity” value: 28.1% for the first, 70.3% for the second.

Compared with `C[C@]12CC[C@H]3[C@@H](CC=C4C=C(C(=O)O)CC[C@@]43C)[C@@H]1CC[C@@H]2C(=O)NC(c1ccccc1)c1ccccc1` [Example 1, 17β-[N-(Diphenylmethyl)carbamoyl]androsta-3,5-diene-3-carboxylic acid], `C[C@]12CC[C@H]3[C@@H](CC=C4C=C(C(=O)O)CC[C@@]43C)[C@@H]1CC[C@@H]2C(=O)NC(c1ccc(F)cc1)c1ccc(F)cc1` [Example 16, 17β-[N-(4,4'-Difluorobenzhydryl)carbamoyl]androsta-3,5-diene-3-carboxylic acid] is higher in “Inhibitory Activity” value: 70.6% for the first, 81.7% for the second.

For `CCC(CC)(NC(=O)[C@H]1CC[C@H]2[C@@H]3CC=C4C=C(C(=O)O)CC[C@]4(C)[C@H]3CC[C@]12C)c1ccccc1` [Example 12, 17β-[N-(1-Ethyl-1-phenylpropyl)carbamoyl]androsta-3,5-diene-3-carboxylic acid], the “Inhibitory Activity” value was 74.0%.
